The values that follow come from paper PMC467105, “A comprehensive investigation of the anion inhibition profile of a β-carbonic anhydrase from Acinetobacter baumannii for crafting innovative antimicrobial treatments” (Journal of Enzyme Inhibition and Medicinal Chemistry, 2024).

Where only a bound is given, the exact number is not on record here.

One experiment addresses β-AbauCA (Acinetobacter baumannii β-CA, CanB) (Acinetobacter baumannii, UniProt A0A7U3Y636). Description: biochemical.
UniProt A0A7U3Y636, sequence (A0A7U3Y636 1-204): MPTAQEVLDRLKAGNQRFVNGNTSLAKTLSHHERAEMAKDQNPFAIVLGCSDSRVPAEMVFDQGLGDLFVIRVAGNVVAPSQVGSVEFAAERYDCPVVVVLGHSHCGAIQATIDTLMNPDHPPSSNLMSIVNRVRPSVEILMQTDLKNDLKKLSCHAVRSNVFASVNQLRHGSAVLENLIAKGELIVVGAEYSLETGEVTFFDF
Details: not given
It counts as biochemical.
In the case of `NS(N)(=O)=O` [Anion H2NSO2NH2, sulfamide], the “affinity / Ki for β-AbauCA (in words)” value is on record as “low millimolar affinity”.
`NS(=O)(=O)O` [Anion H2NSO3H, sulphamic acid]: the “affinity / Ki for β-AbauCA (in words)” value is “submillimolar”.
On the same count and under the same terms, next, `OB1OB2OB(O)OB(O1)O2` [B4O7^2-, tetraborate]: “low millimolar affinity”; `N#CO` [CNO^-, cyanate]: “submillimolar”; `S=C(S)S` [CS3^2-, trithiocarbonate]: “low millimolar affinity”.
A word on the Ki: it is the equilibrium dissociation constant of an inhibitor or competing ligand from its target. Take `CCN(CC)C(=S)S` [Et2NCS2^-, diethyldithiocarbamate]: affinity was put at a Ki of 8.2 mM and the “affinity / Ki for β-AbauCA (in words)” value is “low millimolar affinity”.
Turning to `S` [HS^-, hydrogensulfide], the “affinity / Ki for β-AbauCA (in words)” value is “submillimolar”.
On the same count and under the same terms, next, `O=S(=O)(O)NS(=O)(=O)O` [NH(SO3)2^2-, iminodisulfonate]: “submillimolar”.
On to `OB(O)c1ccccc1` [Ph-B(OH)2, phenylboronic acid], for which the Ki was found to be 0.29 mM and the “affinity / Ki for β-AbauCA (in words)” value is given as “submillimolar”.
As to `[O]=[Re](=[O])(=[O])[O-]` [ReO4^-, perrhenate], the “affinity / Ki for β-AbauCA (in words)” value was “low millimolar affinity”.
Same read-out and setting: next, `[O]=[Ru](=[O])(=[O])=[O]` [RuO4^-, perrhuthenate]: “submillimolar”; `O=S(=O)(O)OOS(=O)(=O)O` [S2O8^2-, peroxydisulfate]: “low millimolar affinity”; `N#CS` [SCN^-, thiocyanate]: “low millimolar affinity”.
The same measure, in the same setting: next, `N#C[SeH]` [SeCN^-, selenocyanide]: “submillimolar”; `[O]=[Sn]([OH])[OH]` [SnO3^2-, stannate]: “low millimolar affinity”; `[O]=[V]([OH])([OH])[O][V](=[O])([OH])[OH]` [V2O7^4-, divanadate]: “low millimolar affinity”.

The same experiment, now with this note: read-out: Ki β-AbauCA.
On to `NS(N)(=O)=O` [Anion H2NSO2NH2, sulfamide], for which the Ki turned out to be 2.1 mM.
In the case of `NS(=O)(=O)O` [Anion H2NSO3H, sulphamic acid], the Ki was 0.63 mM.
For the compound `OB1OB2OB(O)OB(O1)O2` [B4O7^2-, tetraborate], the Ki came out at 6.9 mM.
The same measure, in the same setting: then `F[B-](F)(F)F` [BF4^-, tetrafluoroborate], with above 100 mM.
The same measure, in the same setting: next, `Br` [Br^-]: above 100 mM; `O=S(=O)(O)C(F)(F)F` [CF3SO3^-, triflate]: above 100 mM.
`N#CO` [CNO^-, cyanate]: the Ki stood at 0.79 mM.
Still for that read-out and setting: next, `O=C(O)O` [CO3^2-, carbonate]: above 100 mM.
Consider `S=C(S)S` [CS3^2-, trithiocarbonate], for which the Ki worked out at 3.3 mM.
Still for that read-out and setting: next, `[O-][Cl+3]([O-])([O-])O` [ClO4^-, perchlorate]: above 100 mM.
As to `Cl` [Cl^-], the Ki was above 100 mM.
Same read-out and setting: then `F` [F^-], with above 100 mM; and `O=S(O)O` [HSO3^-, bisulphite], with 59.1 mM; and `S` [HS^-, hydrogensulfide], with 0.4 mM.
In the case of `I` [I^-], the Ki was above 100 mM.
In the case of `[N-]=[N+]=[N-]` [N3^-, azide], the Ki was above 100 mM.
On the same count and under the same terms, next, `O=S(=O)(O)NS(=O)(=O)O` [NH(SO3)2^2-, iminodisulfonate]: 0.93 mM; `O=NO` [NO2^-, nitrite]: 31.1 mM.
Still for that read-out and setting: then `O=[N+]([O-])O` [NO3^-, nitrate], with 47.9 mM; and `O=P(O)(O)OP(=O)(O)O` [P2O7^4-, pyrophosphate], with 33.6 mM.
As for `[O]=[Re](=[O])(=[O])[O-]` [ReO4^-, perrhenate], the Ki came out at 8.1 mM.
Still for that read-out and setting: next, `[O]=[Ru](=[O])(=[O])=[O]` [RuO4^-, perrhuthenate]: 0.96 mM.
For `O=S(=O)(O)OOS(=O)(=O)O` [S2O8^2-, peroxydisulfate], the Ki stood at 3.8 mM.
Still for that read-out and setting: next, `O=S(=O)(O)O` [SO4^2-, sulphate]: 79.3 mM; `N#C[SeH]` [SeCN^-, selenocyanide]: 0.71 mM.
The same measure, in the same setting: then `O=[Se](=O)(O)O` [SeO4^2-, selenate], with 18.4 mM.
As for `[O]=[Sn]([OH])[OH]` [SnO3^2-, stannate], the Ki came out at 2.4 mM.
As for `O=[Te](=O)(O)O` [TeO4^2-, tellurate], the Ki turned out to be 6 mM.
For the compound `[O]=[V]([OH])([OH])[O][V](=[O])([OH])[OH]` [V2O7^4-, divanadate], the Ki turned out to be 5.8 mM.

Another experiment deals with PgiCAβ (Porphyromonas gingivalis β-CA).
Experiment: not given
The note with it: CO2 hydrase, stopped-flow assay; cited from earlier work. Set-up: method as in PMID 24146373.
Turning to `NS(N)(=O)=O` [Anion H2NSO2NH2, sulfamide], the Ki was 0.078 mM.
Consider `NS(=O)(=O)O` [Anion H2NSO3H, sulphamic acid], for which the Ki was 0.06 mM.
In the case of `F[B-](F)(F)F` [BF4^-, tetrafluoroborate], the Ki is above 100 mM.
For `Br` [Br^-], the Ki was 15.9 mM.
Consider `O=S(=O)(O)C(F)(F)F` [CF3SO3^-, triflate], for which the Ki is 8.5 mM.
`S=C(S)S` [CS3^2-, trithiocarbonate]: the Ki is 4.3 mM.
On to `Cl` [Cl^-], for which the inhibitory constant (Ki) was 7.5 mM.
For the compound `CCN(CC)C(=S)S` [Et2NCS2^-, diethyldithiocarbamate], the Ki was 0.23 mM.
As for `F` [F^-], the inhibition constant Ki is 7.8 mM.
On to `O=S(O)O` [HSO3^-, bisulphite], for which the Ki is above 100 mM.
For the compound `I` [I^-], the inhibitory constant (Ki) is 21.4 mM.
Turning to `O=S(=O)(O)NS(=O)(=O)O` [NH(SO3)2^2-, iminodisulfonate], the Ki was 2.1 mM.
As to `O=[N+]([O-])O` [NO3^-, nitrate], the Ki was above 100 mM.
`O=P(O)(O)OP(=O)(O)O` [P2O7^4-, pyrophosphate]: the inhibitory constant (Ki) is 8.2 mM.
With `F[P-](F)(F)(F)(F)F` [PF6^-, hexafluorophosphate], the inhibition constant Ki is 8.2 mM.
Turning to `O=S(=O)(O)OOS(=O)(=O)O` [S2O8^2-, peroxydisulfate], the inhibition constant (Ki) is 9.2 mM.
For the compound `N#CS` [SCN^-, thiocyanate], the Ki is 1.9 mM.

Still in this experiment, the particulars now being: cited from earlier work.
On to `N#CO` [CNO^-, cyanate], for which the Ki is 0.76 mM.
Regarding `O=C(O)O` [CO3^2-, carbonate], the Ki is 3.7 mM.
As for `[O-][Cl+3]([O-])([O-])O` [ClO4^-, perchlorate], the Ki was above 100 mM.
`O=C(O)O` [HCO3^-, bicarbonate]: the Ki was 7.3 mM.
Turning to `S` [HS^-, hydrogensulfide], the Ki was 4.5 mM.
On to `[N-]=[N+]=[N-]` [N3^-, azide], for which the inhibition constant (Ki) is above 100 mM.
For `O=NO` [NO2^-, nitrite], the Ki was 7.8 mM.
Take `O=[As](O)(O)c1ccccc1` [Ph-AsO3H2, phenylarsonic acid]: the Ki is 0.076 mM.
Regarding `OB(O)c1ccccc1` [Ph-B(OH)2, phenylboronic acid], the inhibition constant Ki was 0.077 mM.
For `O=S(=O)(O)O` [SO4^2-, sulphate], the Ki is above 100 mM.
As for `N#C[SeH]` [SeCN^-, selenocyanide], the inhibition constant Ki is 2.4 mM.
As to `O=[Se](=O)(O)O` [SeO4^2-, selenate], the Ki was 9.2 mM.
